Read-outs that look alike come from different tables or passages of the source.

Experiment [1] relates to PBMCs. The note with it: PBMCs used in Example 2; confirmed in advance by the manufacturer; cited from earlier work.
Experiment [2] relates to PBMCs. The note with it: PBMCs used in Example 1; confirmed in advance by the manufacturer; cited from earlier work.
Experiment [3] has as its system PBMCs. In words: Autofluorescence imaging FAD/NADH ratio of PBMCs after antigen stimulation (Example 2). The class given is cell-based. The note with it: peptide solution 10 nM, PBMCs without preculturing. As for the experimental part: PBMCs having reactivity to a test substance that differs from the reactivity in Example 1 were used here. The PBMCs used here were manufactured by Cellular Technology Limited, and thawed by following a manual provided by the manufacturer. Unlike Example 1, preculturing was skipped and the PBMCs were immediately presented to a test for examining reactivity to a test substance.
The thawed PBMCs were suspended in the CTL-Test Medium at a cell concentration of 7.2×10^6 cells/mL, and 250 μL each was seeded in a 24-well plate. As the test substance, a peptide solution manufactured by Cellular Technology Limited, specifically, CMV pp65 (495-503) Peptide (having a peptide concentration of 10 nM) was used, and 250 μL of this peptide solution was added to each of the wells containing the cells.
As a control cell group to which no test substances were added, cells to which 250 μL each of CTL-Test Medium was added instead of a peptide solution were used. After antigen stimulation, the cells were left to stand for 1 hour to 24 hours in a 5% CO2 incubator. From each well, an entire amount of cell suspension solution was collected and subjected to 5 minutes of centrifugation at 300 G. After the centrifugation, a supernatant was removed and cell pellets were suspended in 1,000 μL of PBS. Further, the resultant cell suspension solution was diluted 5 times with the PBS. Then, 100 μL of the diluted cell suspension solution was seeded onto a cover glass part (having a diameter of 16 mm) of a 35-mm glass bottom dish, and was used for bright field observation and autofluorescence observation.
The subsequent bright-field image acquisition, autofluorescence image acquisition, extraction and analysis of the color information of the autofluorescence images were performed by the same methods as the methods in Example 1.

Regarding “CMV pp65 (495-503) Peptide: peptide solution manufactured by Cellular Technology Limited; peptide that binds directly to an MHC (NLVPMVATV; UniProt P06725 495-503, looked up, fragment)”, the “reactivity of the PBMCs to the peptide (ELISpot test)” value was “react strongly” in the experiment on PBMCs [1] and “react weakly” in the experiment with PBMCs [2]. Further, the “drop in FAD/NADH ratio compared to PBMCs with no test substance added” value is “reproduced” with PBMCs [3] (1 hour of stimulation), “hardly observed” in the experiment with PBMCs [3] (4 hours after stimulation) and “substantially no drop” in the experiment with PBMCs [3] (period from 4 hours to 24 hours after stimulation).

The values are drawn from patent US20240310360A1, “METHOD OF […] RESPONSE OF CELL GROUP TO TEST SUBSTANCE” (CANON KABUSHIKI KAISHA, priority 2023, published 2024).
